Source: US20250019378A1, “PYRROLE[2,3-B]PYRIDINE DERIVATIVES AS TYRO3 INHIBITORS” (HALIA THERAPEUTICS, INC., priority 2021, published 2025)

These molecules were tested against recombinant human Tyro3 (Homo sapiens (Human), UniProt Q06418) (assay: Tyro3 Enzymatic Assay). Conditions: radiometric [32P]-ATP kinase assay, Poly(Glu, Tyr) substrate, 2 nM enzyme.
Sequence of recombinant human Tyro3 (Q06418 41-890): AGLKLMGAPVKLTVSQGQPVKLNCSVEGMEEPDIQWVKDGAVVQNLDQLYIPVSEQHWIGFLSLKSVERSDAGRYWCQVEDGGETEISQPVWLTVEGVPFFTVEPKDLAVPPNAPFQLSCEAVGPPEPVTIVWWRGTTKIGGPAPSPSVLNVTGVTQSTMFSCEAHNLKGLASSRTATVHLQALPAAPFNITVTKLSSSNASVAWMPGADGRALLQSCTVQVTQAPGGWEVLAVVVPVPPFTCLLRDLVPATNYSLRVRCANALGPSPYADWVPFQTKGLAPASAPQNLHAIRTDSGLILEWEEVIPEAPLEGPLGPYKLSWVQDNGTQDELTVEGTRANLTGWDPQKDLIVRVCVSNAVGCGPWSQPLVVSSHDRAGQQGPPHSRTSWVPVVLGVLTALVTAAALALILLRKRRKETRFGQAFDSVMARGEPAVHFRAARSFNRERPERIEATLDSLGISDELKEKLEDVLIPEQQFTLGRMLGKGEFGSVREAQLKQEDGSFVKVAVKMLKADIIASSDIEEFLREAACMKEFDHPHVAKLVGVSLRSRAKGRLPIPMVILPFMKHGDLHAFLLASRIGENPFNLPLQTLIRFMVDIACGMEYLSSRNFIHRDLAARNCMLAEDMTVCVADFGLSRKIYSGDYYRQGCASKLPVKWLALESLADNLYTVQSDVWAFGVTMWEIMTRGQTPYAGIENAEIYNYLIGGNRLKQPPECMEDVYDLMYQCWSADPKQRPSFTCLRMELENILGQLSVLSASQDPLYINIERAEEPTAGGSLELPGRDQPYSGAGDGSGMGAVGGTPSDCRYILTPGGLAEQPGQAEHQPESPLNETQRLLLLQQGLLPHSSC
Format: biochemical
Experimental: Poly(Glu, Tyr) sodium salt (Glu:Tyr (4:1), quality level 200, molecular weight 5,000-20,000, obtained from Sigma Aldrich, catalogue #P7244, assay concentration 0.20 mg/mL) and recombinant human Tyro3 (obtained from ThermoFisher Scientific, catalogue #PV3828, assay concentration 2 nM) were mixed in assay buffer (20 mM Hepes pH 7.5, 10 mM MgCl2, […] EGTA, 0.02% Brij35, 0.02 mg/ml BSA, 0.1 mM Na3VO4, 2 mM DTT, 1% DMSO, with added MnCl2 at a final concentration of 2 mM). Compounds of interest (in DMSO, serial 3-fold dilution from 10 μM to 0.5 nM) or control (1% DMSO) were dispensed into the kinase reaction mixture by Acoustic technology (Echo550; nanoliter range). After incubation at room temperature for 20 minutes, the kinase reaction was initiated by addition of [^32P]-ATP (Specific activity 10 μCi/μL) and the mixture was incubated at room temperature for 2 hours. The reaction was then stopped by spotting the reaction mixture on strips of phosphocellulose P81 paper. Following washing, the radioactivity of the P81 paper was measured and kinase activity data were expressed as the percent remaining kinase activity in test samples compared to vehicle (dimethyl sulfoxide) reactions. IC50 values and curve fits were obtained using Prism (GraphPad Software).
Molecule `CCc1[nH]c2ncc(-c3cn(C4CCN(C)CC4)nc3Cl)cc2c1-c1cccc(F)c1` [Compound 26, 5-(3-chloro-1-(1-methylpiperidin-4-yl)-1H-pyrazol-4-yl)-2-ethyl-3-(3-fluorophenyl)-1H-pyrrolo[2,3-b]pyridine] has an IC50 of 151 to 501 nM.
`CCc1[nH]c2ncc(-c3cn(C4CCN(C)CC4)nc3OC)cc2c1-c1cccc(C(F)F)c1` [Compound 27, 3-(3-(difluoromethyl)phenyl)-2-ethyl-5-(3-methoxy-1-(1-methylpiperidin-4-yl)-1H-pyrazol-4-yl)-1H-pyrrolo[2,3-b]pyridine] showed an IC50 of 51 to 150 nM.
Molecule `COc1nn(C2CCN(C)CC2)cc1-c1cnc2[nH]c(Cl)c(-c3cccc(F)c3)c2c1` [Compound 28, 2-chloro-3-(3-fluorophenyl)-5-(3-methoxy-1-(1-methylpiperidin-4-yl)-1H-pyrazol-4-yl)-1H-pyrrolo[2,3-b]pyridine] has an IC50 of 51 to 150 nM.
For `COCCN1CCC(n2cc(-c3cnc4[nH]cc(-c5cccc(F)c5)c4c3)c(OC)n2)CC1` [Compound 29, 3-(3-fluorophenyl)-5-(3-methoxy-1-(1-(2-methoxyethyl)piperidin-4-yl)-1H-pyrazol-4-yl)-1H-pyrrolo[2,3-b]pyridine], the IC50 was 51 to 150 nM.
With `COc1nn(C2CCN(C(C)=O)CC2)cc1-c1cnc2[nH]cc(-c3cccc(F)c3)c2c1` [Compound 30, 1-(4-(4-(3-(3-fluorophenyl)-1H-pyrrolo[2,3-b]pyridin-5-yl)-3-methoxy-1H-pyrazol-1-yl)piperidin-1-yl)ethan-1-one] the IC50 was over 500 nM.
`COc1ccc(-c2c[nH]c3ncc(-c4cnn(CC5CCN(C)CC5)c4)cc23)cn1` [Compound 31, 3-(6-methoxypyridin-3-yl)-5-(1-((1-methylpiperidin-4-yl)methyl)-1H-pyrazol-4-yl)-1H-pyrrolo[2,3-b]pyridine] gave an IC50 of 151 to 501 nM.
`COc1ccc(-c2c[nH]c3ncc(-c4cnn(C5CCC(O)CC5)c4)cc23)cn1` (stereo not drawn) [Compound 32, 4-(4-(3-(6-methoxypyridin-3-yl)-1H-pyrrolo[2,3-b]pyridin-5-yl)-1H-pyrazol-1-yl)cyclohexan-1-ol] gave an IC50 of 151 to 501 nM.
With `COc1ccc(-c2c[nH]c3ncc(-c4cnn(C5CC(OC)C5)c4)cc23)cn1` (stereo not drawn) [Compound 33, 5-(1-(3-methoxycyclobutyl)-1H-pyrazol-4-yl)-3-(6-methoxypyridin-3-yl)-1H-pyrrolo[2,3-b]pyridine] the IC50 was over 500 nM.
In the case of `COc1ccc(-c2c[nH]c3ncc(-c4cc(CN5CCCC(O)C5)n(C)n4)cc23)cn1` (stereo not drawn) [Compound 35, 1-((3-(3-(6-methoxypyridin-3-yl)-1H-pyrrolo[2,3-b]pyridin-5-yl)-1-methyl-1H-pyrazol-5-yl)methyl)piperidin-3-ol], the IC50 is reported as over 500 nM.
